In publication PMC8248988, “A signal capture and proofreading mechanism for the KDEL-receptor explains selectivity and dynamic range in ER retrieval” (eLife, 2021):

System: ERP72
Experiment: ER chaperone secretion assay, ERP72
Assay type: cell-based, human
Description: Figure 1. ER retrieval signal abundance and affinity are not correlated. (a) Sequence logos for ER resident proteins with C-terminal KDEL retrieval signals and variants thereof calculated using frequency or protein abundance ([Itzhak et al., 2017]; [Itzhak et al., 2016]). (b) Combined cellular concentrations of ER resident proteins with canonical KDEL, RDEL, and HDEL retrieval sequences in HeLa cells and mouse brain. (c) Competition binding assays for [^3H]-TAEHDEL and unlabelled TAEKDEL, TAERDEL, and TAEHDEL to the KDEL receptor. IC50 values for the competing peptides were used to calculate the apparent KDwith the Cheng-Prusoff equation ([Cheng and Prusoff, 1973]). (d) Endogenous KDEL receptor redistribution was measured in COS-7 cells in the absence (-ligand) or presence of K/R/H/A/DDEL (mScarlet-xDEL^sec). TGN46 was used as a Golgi marker. Scale bar is 10 µm. […] The individual data points for the fraction of KDEL receptor fluorescence in the Golgi are plotted on the upper axes with sample sizes and p values. […] Endogenous ER chaperone secretion was measured by western blotting after challenge with different retrieval signals, and plotted as a bar graph showing mean ± SEM (n = 3). […] (a) Distribution of human KDELR1 and (b) KDELR2 was measured in COS-7 cells in the absence (-ligand) or presence of K/R/H/A/DDEL retrieval signals (K/R/H/A/DDEL^sec). […]

## ADEL [pcDNA3.1 hGHss-mScarlet-H. sapiens BiP639-654K651A (ADEL^SEC), secreted mScarlet fusion with human BiP C-terminus, ADEL signal]
mean, HeLa S3, 24 hr, Western blot densitometry
  ERP72 secretion after challenge with retrieval signal: 4.2
Replicate 2
  ERP72 secretion after challenge with retrieval signal: 1.0
